Measurements as given in PMC10123126, “Insights into translocation mechanism and ribosome evolution from cryo-EM structures of translocation intermediates of Giardia intestinalis” (Nucleic Acids Research, 2023).

Target: T1, eEF2 (Giardia duodenalis, UniProt A8BU59)
T1 construct: gene GL50803_0017570; GDP in G domain (domain I)
Test: cryo-EM structure
Type: binding

T1 sequence (A8BU59 1-898): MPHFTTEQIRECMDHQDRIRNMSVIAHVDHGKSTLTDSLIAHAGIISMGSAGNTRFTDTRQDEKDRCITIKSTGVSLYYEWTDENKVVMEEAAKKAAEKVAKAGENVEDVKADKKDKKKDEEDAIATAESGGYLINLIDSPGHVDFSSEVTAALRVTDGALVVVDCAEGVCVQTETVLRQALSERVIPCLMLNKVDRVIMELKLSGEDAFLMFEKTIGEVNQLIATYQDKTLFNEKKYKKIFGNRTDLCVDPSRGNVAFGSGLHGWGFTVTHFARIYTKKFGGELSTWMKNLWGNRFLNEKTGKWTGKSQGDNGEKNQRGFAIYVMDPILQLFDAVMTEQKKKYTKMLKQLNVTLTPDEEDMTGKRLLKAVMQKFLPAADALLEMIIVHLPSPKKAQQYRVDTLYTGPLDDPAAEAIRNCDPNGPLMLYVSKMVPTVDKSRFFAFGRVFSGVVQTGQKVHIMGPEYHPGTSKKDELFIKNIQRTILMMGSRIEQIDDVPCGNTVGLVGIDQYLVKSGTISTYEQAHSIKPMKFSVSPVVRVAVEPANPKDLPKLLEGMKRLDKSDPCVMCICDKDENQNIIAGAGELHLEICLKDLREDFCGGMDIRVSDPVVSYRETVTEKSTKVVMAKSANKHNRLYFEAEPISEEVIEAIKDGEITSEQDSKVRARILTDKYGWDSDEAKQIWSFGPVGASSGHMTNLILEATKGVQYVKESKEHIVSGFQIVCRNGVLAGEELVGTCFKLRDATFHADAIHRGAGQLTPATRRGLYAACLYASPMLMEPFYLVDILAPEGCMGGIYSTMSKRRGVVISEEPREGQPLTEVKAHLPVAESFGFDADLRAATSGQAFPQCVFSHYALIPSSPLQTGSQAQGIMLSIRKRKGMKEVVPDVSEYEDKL

| SMILES | cryo-EM structure (ribosome-bound eEF2, state B (chimeric hybrid), G domain, P-loop (G1), G4 and G5 motifs, naturally bound, no inhibitor or analog added) | cryo-EM structure (ribosome-bound eEF2·GDP, state B, leaving phosphate of GTP hydrolysis, held by H143 of switch-II) |
| --- | --- | --- |
| Nc1nc2c(ncn2[C@@H]2O[C@H](COP(=O)(O)OP(=O)(O)O)[C@@H](O)[C@H]2O)c(=O)[nH]1 [GDP] | We found a clear density of GDP in the G domain of eEF2 |  |
| O=P(O)(O)O [Pi] |  | A distinct density of the ‘leaving Pi’ group can be seen |
